Test system: cancer in situ and cervicitis
Test: Effect of Oxytocin on Cancer in Situ and Cervicitis in Humans (Pap smear test)
Assay type: in vivo
Settings: one patient with cancer in situ and cervicitis; oxytocin 1 mg/ml mixed with 1 ml cellulose gel intravaginally during five consecutive days
Protocol: Patients. 20 women, all aged 60–70 years, with postmenopausal disorders, participated in a double blind cross-over randomised protocol, which means that the patients receive both oxytocin and control treatment without knowing the order of the treatments.
Experimental procedure. The patients were treated with oxytocin 1 mg/ml mixed with 1 ml cellulose gel intravaginally during five consecutive days to relieve the postmenopausal disorders. However, it was discovered that one of the patients suffered from cancer in situ and cervicitis before the oxytocin treatment. This was established by the fact that the patient underwent a Pap smear test before the oxytocin treatment. In this test, cells desquamated from the genital epithelium are obtained by smears, fixed and stained, and examined under the microscope for evidence of pathologic changes. After the oxytocin treatment, the patient also underwent a Pap smear test.

oxytocin
results of the Pap smear tests before and after oxytocin administration: the cancer in situ and cervicitis was removed
